Experimental data as given in patent publication US20020137929A1, “1 - (3-heterocyclylphenyl) isothiourea, -isourea, -guanidine and -amidine herbicidal agents” (Intellectual Property Department, BASF Aktiengesellschaft, priority 1998, published 2002).

Columns and labels:
ZEAMX (Corn, Field) [1] = assay: Postemergence herbicidal evaluation; assay type: in vivo, Zea mays; settings: postemergence
Method in brief: (§1)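 Herbicidal effect was judged by eye on a 0–9 scale covering stand, vigor, deformity, size and chlorosis, compared with controls, four to five weeks after seedlings about two weeks old were sprayed (40 psi, ~0.0156–0.500 kg/ha).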

[2] = tested on: CHEAL (Lambsquarters, Common); assay: Preemergence herbicidal evaluation; assay type: in vivo, Chenopodium album; settings: rated 4-5 weeks after treatment
Method in brief: (§2)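 Scores (0–9) reflect visual comparison with control plants for stand, vigor, malformation, size and chlorosis. Compound was applied to the soil after sowing, before emergence, as an aqueous acetone spray (about 0.0156–0.500 kg/ha), and cups were kept in a greenhouse for 4–5 weeks.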

ORYSAT (Rice, Tebonnet) = assay: Preemergence herbicidal evaluation; assay type: in vivo, Oryza sativa, (L.) Tebonnet; settings: rated 4-5 weeks after treatment
Method in brief: as §2

CYPSE (Flatsedge) [3] = assay: Preemergence weed control under flooded paddy conditions; assay type: in vivo, Cyperus serotinus; settings: rated 3-4 weeks after treatment
Method in brief: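 Ratings on a 0-9 visual scale cover stand, vigor, malformation, size, chlorosis and overall appearance relative to a control, taken three to four weeks post-treatment. Application was into flood water over freshly sown silt loam at roughly 0.0313 to 0.500 kg/ha.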

AMBEL (Ragweed, Common) = assay: Preemergence herbicidal evaluation; assay type: in vivo, Ambrosia artemisifolia; settings: rated 4-5 weeks after treatment
Method in brief: as §2

CYPIR (Rice Flatsedge) = assay: Preemergence weed control under flooded paddy conditions; assay type: in vivo, Cyperus iria; settings: rated 3-4 weeks after treatment
Method in brief: (§3)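 Seeds or propagules sown in top 0.5 cm of silt loam soil, flooded 1.5 to 3 cm above surface throughout. Compound in 50/50 v/v aqueous/acetone pipetted into flood water at about 0.0313 to 0.500 kg/ha. Visual 0-9 rating versus control after three to four weeks in greenhouse.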

[4] = tested on: ECHORC (Watergrass (Calif.)); assay: Postemergence weed control under flooded paddy conditions; assay type: in vivo, Echinochloa oryzoides; settings: postemergence weeds
Method in brief: (§4)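 With weeds 3 to 5 cm tall and rice at the 1.5 to 2.5 leaf stage, containers were flooded and water held 1.5 to 3 cm above soil. Compounds in 50/50 v/v aqueous/acetone went into the flood water at about 0.0313 to 0.500 kg/ha a.i. Effects were visually rated 0–9 against controls after three to four weeks in the greenhouse.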

ZEAMX (Corn, Field) [5] = assay: Preemergence herbicidal evaluation; assay type: in vivo, Zea mays; settings: rated 4-5 weeks after treatment
Method in brief: as §2

[6] = tested on: ECHORC (Watergrass (Calif.)); assay: Preemergence weed control under flooded paddy conditions; assay type: in vivo, Echinochloa oryzoides; settings: rated 3-4 weeks after treatment
Method in brief: as §3

CYPSE (Flatsedge) [7] = assay: Postemergence weed control under flooded paddy conditions; assay type: in vivo, Cyperus serotinus; settings: postemergence weeds
Method in brief: as §4

GALAP (Galium) = assay: Postemergence herbicidal evaluation; assay type: in vivo, Galium aparine; settings: postemergence
Method in brief: as §1

[8] = tested on: IPOHE (Morningglory, Ivyleaf); assay: Preemergence herbicidal evaluation; assay type: in vivo, Ipomoea hederacea; settings: rated 4-5 weeks after treatment
Method in brief: as §2

[9] = tested on: TRZAWR (Wheat, Winter, cv Riband); assay: Preemergence herbicidal evaluation; assay type: in vivo, Triticum aestivum; settings: rated 4-5 weeks after treatment
Method in brief: as §2

CASOB (Sicklepod) = assay: Postemergence herbicidal evaluation; assay type: in vivo, Cassia obtusifolia; settings: postemergence
Method in brief: as §1

[10] = Rate 0.0313 kg/ha, rated 3 to 4 weeks after treatment
[11] = Rate 0.0625 kg/ha, rated 3 to 4 weeks after treatment
[12] = Rate 0.1250 kg/ha, rated 3 to 4 weeks after treatment
[13] = Rate 0.2500 kg/ha, rated 3 to 4 weeks after treatment
[14] = rate 0.0313 kg/ha, 3-4 weeks after treatment
[15] = rate 0.0625 kg/ha, 3-4 weeks after treatment
[16] = rate 0.1250 kg/ha, 3-4 weeks after treatment
[17] = rate 0.2500 kg/ha, 3-4 weeks after treatment

CCOC(=O)C(c1ccc(Cl)cc1)N1C(=O)CSC1=Nc1cc(-n2c(=O)cc(C(F)(F)F)n(C)c2=O)c(F)cc1Cl (racemic) [Compound 79, Ethyl α-(p-chlorophenyl)-2-{{2-chloro-5-[3,6-dihydro-3-methyl-2,6-dioxo-4-(trifluoromethyl)-1(2H)-pyrimidinyl]-4-fluorophenyl}imino}-4-oxo-3-thiazolidineacetate, DL-]
6.0: CYPIR herbicidal effect rating (CYPIR (Rice Flatsedge); 0.2500 kg/ha) | Herbicidal rating ECHORC [4, 11] | ECHORC herbicidal effect rating ([6]; 0.0625 kg/ha)
0.0: Preemergence herbicidal rating ORYSAT (ORYSAT (Rice, Tebonnet); rate 0.0313 kg/ha) | Preemergence herbicidal rating ORYSAT (ORYSAT (Rice, Tebonnet); rate 0.1250 kg/ha) | CYPSE herbicidal effect rating (CYPSE (Flatsedge) [3]; 0.0313 kg/ha) | CYPSE herbicidal effect rating (CYPSE (Flatsedge) [3]; 0.0625 kg/ha) | CYPSE herbicidal effect rating (CYPSE (Flatsedge) [3]; 0.1250 kg/ha) | CYPIR herbicidal effect rating (CYPIR (Rice Flatsedge); 0.0313 kg/ha) | CYPIR herbicidal effect rating (CYPIR (Rice Flatsedge); 0.0625 kg/ha) | Herbicidal rating CYPSE (CYPSE (Flatsedge) [7]; [10]) | Herbicidal rating CYPSE (CYPSE (Flatsedge) [7]; [11]) | Herbicidal rating CYPSE (CYPSE (Flatsedge) [7]; [12]) | Preemergence herbicidal rating IPOHE ([8]; rate 0.0313 kg/ha) | Preemergence herbicidal rating IPOHE ([8]; rate 0.0625 kg/ha) | Preemergence herbicidal rating IPOHE ([8]; rate 0.1250 kg/ha) | Preemergence herbicidal rating TRZAWR ([9]; rate 0.0313 kg/ha) | Preemergence herbicidal rating TRZAWR ([9]; rate 0.1250 kg/ha)
2.0: CYPIR herbicidal effect rating (CYPIR (Rice Flatsedge); 0.1250 kg/ha) | Preemergence herbicidal rating ZEAMX (ZEAMX (Corn, Field) [5]; rate 0.2500 kg/ha) | GALAP herbicidal rating (GALAP (Galium); rate 0.0315 kg/ha)
9.0: Preemergence herbicidal rating CHEAL ([2]; rate 0.0313 kg/ha) | Preemergence herbicidal rating CHEAL ([2]; rate 0.0625 kg/ha) | Preemergence herbicidal rating CHEAL ([2]; rate 0.1250 kg/ha) | Preemergence herbicidal rating CHEAL ([2]; rate 0.2500 kg/ha) | CYPSE herbicidal effect rating (CYPSE (Flatsedge) [3]; 0.2500 kg/ha) | Herbicidal rating CYPSE (CYPSE (Flatsedge) [7]; [13])
4.5: ZEAMX herbicidal rating (ZEAMX (Corn, Field) [1]; rate 0.0315 kg/ha)
1.0: Preemergence herbicidal rating ORYSAT (ORYSAT (Rice, Tebonnet); rate 0.0625 kg/ha) | Preemergence herbicidal rating ORYSAT (ORYSAT (Rice, Tebonnet); rate 0.2500 kg/ha) | Preemergence herbicidal rating AMBEL (AMBEL (Ragweed, Common); rate 0.0313 kg/ha) | Preemergence herbicidal rating AMBEL (AMBEL (Ragweed, Common); rate 0.1250 kg/ha) | Preemergence herbicidal rating ZEAMX (ZEAMX (Corn, Field) [5]; rate 0.0313 kg/ha) | Preemergence herbicidal rating ZEAMX (ZEAMX (Corn, Field) [5]; rate 0.0625 kg/ha) | Preemergence herbicidal rating ZEAMX (ZEAMX (Corn, Field) [5]; rate 0.1250 kg/ha) | GALAP herbicidal rating (GALAP (Galium); rate 0.0158 kg/ha) | GALAP herbicidal rating (GALAP (Galium); rate 0.0630 kg/ha) | Preemergence herbicidal rating IPOHE ([8]; rate 0.2500 kg/ha) | Preemergence herbicidal rating TRZAWR ([9]; rate 0.0625 kg/ha) | Preemergence herbicidal rating TRZAWR ([9]; rate 0.2500 kg/ha) | CASOB herbicidal rating (CASOB (Sicklepod); rate 0.0158 kg/ha) | CASOB herbicidal rating (CASOB (Sicklepod); rate 0.0315 kg/ha) | CASOB herbicidal rating (CASOB (Sicklepod); rate 0.0630 kg/ha)
5.0: ZEAMX herbicidal rating (ZEAMX (Corn, Field) [1]; rate 0.0158 kg/ha) | ZEAMX herbicidal rating (ZEAMX (Corn, Field) [1]; rate 0.0630 kg/ha) | Herbicidal rating ECHORC [4, 10] | ECHORC herbicidal effect rating ([6]; 0.0313 kg/ha)
7.0: Herbicidal rating ECHORC [4, 12] | ECHORC herbicidal effect rating ([6]; 0.1250 kg/ha)
3.0: Preemergence herbicidal rating AMBEL (AMBEL (Ragweed, Common); rate 0.0625 kg/ha)
8.0: Preemergence herbicidal rating AMBEL (AMBEL (Ragweed, Common); rate 0.2500 kg/ha) | Herbicidal rating ECHORC [4, 13] | ECHORC herbicidal effect rating ([6]; 0.2500 kg/ha)

CC1SC(=Nc2cc(-n3c(=O)cc(C(F)(F)F)n(C)c3=O)c(F)cc2Cl)N(C)C1=O (stereo not shown) [Compound 9]
4.5: GALAP herbicidal rating (GALAP (Galium); rate 0.0625 kg/ha) | CASOB herbicidal rating (CASOB (Sicklepod); rate 0.1250 kg/ha)
5.0: ZEAMX herbicidal rating (ZEAMX (Corn, Field) [1]; rate 0.0313 kg/ha) | IPOHE preemergence herbicidal rating ([8]; rate 0.0156 kg/ha)
8.5: ORYSAT preemergence herbicidal rating (ORYSAT (Rice, Tebonnet); rate 0.0313 kg/ha)
8.3: ZEAMX preemergence herbicidal rating (ZEAMX (Corn, Field) [5]; rate 0.0625 kg/ha)
0.0: Herbicidal rating CYPSE (CYPSE (Flatsedge) [3]; 0.0313 kg/ha) | Herbicidal rating CYPSE (CYPSE (Flatsedge) [3]; 0.0625 kg/ha) | Herbicidal rating CYPIR (CYPIR (Rice Flatsedge); 0.0313 kg/ha) | Herbicidal rating ECHORC [4, 14] | Herbicidal rating ECHORC ([6]; 0.0313 kg/ha) | Herbicidal rating CYPSE (CYPSE (Flatsedge) [7]; [14]) | Herbicidal rating CYPSE (CYPSE (Flatsedge) [7]; [15]) | CASOB herbicidal rating (CASOB (Sicklepod); rate 0.0156 kg/ha)
8.7: ZEAMX preemergence herbicidal rating (ZEAMX (Corn, Field) [5]; rate 0.1250 kg/ha) | ZEAMX preemergence herbicidal rating (ZEAMX (Corn, Field) [5]; rate 0.2500 kg/ha)
6.3: AMBEL preemergence herbicidal rating (AMBEL (Ragweed, Common); rate 0.0313 kg/ha)
2.5: GALAP herbicidal rating (GALAP (Galium); rate 0.0313 kg/ha)
6.7: ZEAMX preemergence herbicidal rating (ZEAMX (Corn, Field) [5]; rate 0.0156 kg/ha)
6.0: Herbicidal rating CYPIR (CYPIR (Rice Flatsedge); 0.2500 kg/ha)
7.7: IPOHE preemergence herbicidal rating ([8]; rate 0.0313 kg/ha)
4.0: Herbicidal rating CYPIR (CYPIR (Rice Flatsedge); 0.1250 kg/ha) | Herbicidal rating ECHORC [4, 16] | Herbicidal rating ECHORC ([6]; 0.1250 kg/ha) | TRZAWR preemergence herbicidal rating ([9]; rate 0.0156 kg/ha)
5.5: ZEAMX herbicidal rating (ZEAMX (Corn, Field) [1]; rate 0.0625 kg/ha) | ORYSAT preemergence herbicidal rating (ORYSAT (Rice, Tebonnet); rate 0.0156 kg/ha)
9.0: CHEAL preemergence herbicidal rating ([2]; rate 0.0156 kg/ha) | CHEAL preemergence herbicidal rating ([2]; rate 0.0313 kg/ha) | CHEAL preemergence herbicidal rating ([2]; rate 0.0625 kg/ha) | CHEAL preemergence herbicidal rating ([2]; rate 0.1250 kg/ha) | CHEAL preemergence herbicidal rating ([2]; rate 0.2500 kg/ha) | ORYSAT preemergence herbicidal rating (ORYSAT (Rice, Tebonnet); rate 0.1250 kg/ha) | ORYSAT preemergence herbicidal rating (ORYSAT (Rice, Tebonnet); rate 0.2500 kg/ha) | AMBEL preemergence herbicidal rating (AMBEL (Ragweed, Common); rate 0.1250 kg/ha) | AMBEL preemergence herbicidal rating (AMBEL (Ragweed, Common); rate 0.2500 kg/ha) | IPOHE preemergence herbicidal rating ([8]; rate 0.1250 kg/ha) | IPOHE preemergence herbicidal rating ([8]; rate 0.2500 kg/ha) | TRZAWR preemergence herbicidal rating ([9]; rate 0.1250 kg/ha) | TRZAWR preemergence herbicidal rating ([9]; rate 0.2500 kg/ha)
3.0: AMBEL preemergence herbicidal rating (AMBEL (Ragweed, Common); rate 0.0156 kg/ha)
7.3: AMBEL preemergence herbicidal rating (AMBEL (Ragweed, Common); rate 0.0625 kg/ha)
4.8: ZEAMX herbicidal rating (ZEAMX (Corn, Field) [1]; rate 0.0156 kg/ha)
7.0: ZEAMX herbicidal rating (ZEAMX (Corn, Field) [1]; rate 0.1250 kg/ha) | Herbicidal rating CYPSE (CYPSE (Flatsedge) [3]; 0.2500 kg/ha) | Herbicidal rating ECHORC [4, 17] | ZEAMX preemergence herbicidal rating (ZEAMX (Corn, Field) [5]; rate 0.0313 kg/ha) | Herbicidal rating ECHORC ([6]; 0.2500 kg/ha) | Herbicidal rating CYPSE (CYPSE (Flatsedge) [7]; [17]) | IPOHE preemergence herbicidal rating ([8]; rate 0.0625 kg/ha) | TRZAWR preemergence herbicidal rating ([9]; rate 0.0313 kg/ha)
2.0: Herbicidal rating CYPSE (CYPSE (Flatsedge) [3]; 0.1250 kg/ha) | Herbicidal rating CYPIR (CYPIR (Rice Flatsedge); 0.0625 kg/ha) | Herbicidal rating ECHORC [4, 15] | Herbicidal rating ECHORC ([6]; 0.0625 kg/ha) | Herbicidal rating CYPSE (CYPSE (Flatsedge) [7]; [16]) | CASOB herbicidal rating (CASOB (Sicklepod); rate 0.0625 kg/ha)
7.5: ORYSAT preemergence herbicidal rating (ORYSAT (Rice, Tebonnet); rate 0.0625 kg/ha) | GALAP herbicidal rating (GALAP (Galium); rate 0.1250 kg/ha) | TRZAWR preemergence herbicidal rating ([9]; rate 0.0625 kg/ha)
1.0: CASOB herbicidal rating (CASOB (Sicklepod); rate 0.0313 kg/ha)
1.5: GALAP herbicidal rating (GALAP (Galium); rate 0.0156 kg/ha)
